The source of these data is patent US7358267B2, “Bis-aryl thiazole derivatives” (Amgen Inc., priority 2001, dated 2008).

One data set has as its target T1, RXRα (Homo sapiens, UniProt P19793).
T1 construct: expressed in transfected cells; host or cells: HEK 293 cells
T1 sequence (P19793 1-462): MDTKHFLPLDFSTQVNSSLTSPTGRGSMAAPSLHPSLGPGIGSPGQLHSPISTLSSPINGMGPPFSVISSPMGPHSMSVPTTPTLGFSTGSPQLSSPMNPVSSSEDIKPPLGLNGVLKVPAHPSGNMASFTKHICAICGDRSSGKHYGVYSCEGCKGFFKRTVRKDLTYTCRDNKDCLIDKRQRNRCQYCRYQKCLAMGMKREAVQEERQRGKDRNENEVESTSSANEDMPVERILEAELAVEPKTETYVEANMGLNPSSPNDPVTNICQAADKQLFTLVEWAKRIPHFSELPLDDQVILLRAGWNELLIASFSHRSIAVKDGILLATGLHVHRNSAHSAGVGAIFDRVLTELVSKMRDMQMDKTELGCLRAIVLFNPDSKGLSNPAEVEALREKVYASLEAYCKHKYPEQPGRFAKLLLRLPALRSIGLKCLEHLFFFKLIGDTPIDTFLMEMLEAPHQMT
Nature of the data set: RXRα induction in HEK 293 cells (transient transfection, luciferase reporter). It is filed as cell-based. How it is done:
Table 2 provides QPCR data (ABI 7700 Sequence Detection System) for exemplary compounds of formula I evaluated for RXR induction in HEK 293 cells, following a general protocol, briefly described below. See Naeger et al. (1999) J. Biol. Chem. 274:1875-1878 for a related cell-based assay.
DNA constructs containing a luciferase reporter plasmid and another plasmid which contained an activation domain (e.g., RXRα) were transiently transfected into HEK 293 cells. The cells were treated with the compounds and luciferase activity was measured using a luminometer. Fold induction was determined by comparing the luciferase activity of treated cells to the activity of untreated cells.
Background: In a reporter assay the amount or activity of a reporter protein is the signal.

In the next data set the test system is UCP3. Nature of the data set: UCP3 RNA induction in rat L6 cells (QPCR). In kind it is cell-based. Also on record: key to UCP3 RNA induction, Induction at 10 μM: ++ denotes greater than 10-fold induction; + denotes 10-fold or less induction; — denotes no induction. As for the experimental part:
Table 1 provides QPCR data (ABI 7700 Sequence Detection System) for exemplary compounds of formula I evaluated for UCP3 RNA induction in L6 cells from rats. The assay is described in Example 14.4, below.
Rat UCP3 (L6 cells) QPCR Protocol
1. (Day1) Plate 300,000 L6 cells per well (24 well plate) in Minimum Essential Medium-Alpha Medium with 2% FBS and Antibiotic/Antimycotic Solution added. Incubate for 2 days and change to fresh medium (Day3). Incubate 1 more day.
2. (Day 4) Add compound at desired concentration. Incubate for 18-20 h. 2 wells per compound. 4-wells of DMSO controls per plate.
3. (Day 5) Prepare RNA from cells: • (1) Aspirate media and lyse cells directly on plate by adding 500 μL of Trizol Reagent (Gibco BRL) to each well and passing the lysate several times through a pipette. Transfer lysate to eppendorf tubes (combining the lysate from identical compound treatments). • (2) Add 200 μL of chloroform to the 1 mL of lysate. Vortex to mix and incubate at room temp. for 2-3 min. Spin samples in a microfuge at 12,000 rpm for 15 min. at 4° C. • (3) Transfer the aqueous phase to a fresh tube. Precipitate the RNA from the aqueous phase by adding 500 μL of isopropanol and mixing well. Incubate at −20° C. for at least 15 min. Pellet the RNA by spinning at 12,000 rpm for 10 min. at 4° C. • (4) Remove the supernatant and wash the RNA pellet with 500 μL of 75% ethanol. Spin at 10,000 rpm for 5 min. at 4° C. • (5) Remove the supernatant and allow pellet to air dry briefly. Dissolve RNA in 15 μL of RNase-free water. Store at −80° C. Electrophorese some RNA to check quality.
4. QPCR (50 μL reactions in 96 well MicroAmp Optical Plate): TaqMan Gold RT-PCR Reagents (PE catalog #N808-0232): OD RNA and dilute to 5 ng/μL in RNase-free water. All samples run in duplicate with UCP3 and m18S probe/primers
Add 40 μL of Reaction Mix to 10 μL of diluted RNA (50 ng total) on QPCR plate PCR Cycling Parameters • 48° C. 30 min. • 95° C. 10 min. • 40 cycles: 95° C. 15 sec. • 58° C. 1.5 min. QPCR Primers/Probes

The term fold induction denotes the signal under treatment as a multiple of the control signal. Broadly, the melting point is the temperature, or range, at which the solid turns liquid. For `Cc1c(C(=O)O)cnn1-c1nc(-c2ccc(C(F)(F)F)cc2)cs1` [Compound 2, 1-[4-(4-(Trifluoromethyl)phenyl)thiazol-2-yl]-5-methylpyrazole-4-carboxylic acid], the melting point lay in the range of 273 to 274 °C. Moreover, at RXRα, the “RXRα RNA induction at 1 μM” value is “+ (+ denotes 5-fold or less induction)”, the “RXRα RNA induction at 3 μM” value is reported as “+ (+ denotes 5-fold or less induction)” and the “RXRα RNA induction at 10 μM” value was “+ (+ denotes 5-fold or less induction)”. For the same compound, the fold induction at 10 µM in the data set on UCP3 is above 10.
With `Cc1c(C(=O)O)cnn1-c1nc(-c2ccc(Cl)c(Cl)c2)cs1` [Compound 3, 1-[4-(3,4-Dichlorophenyl)thiazol-2-yl]-5-methylpyrazole-4-carboxylic acid], the melting point fell in the range of 278 to 278.6 °C. Moreover, at RXRα, the “RXRα RNA induction at 1 μM” value is on record as “+ (+ denotes 5-fold or less induction)”, the “RXRα RNA induction at 3 μM” value is listed as “+ (+ denotes 5-fold or less induction)” and the “RXRα RNA induction at 10 μM” value was “+ (+ denotes 5-fold or less induction)”. In addition, the fold induction at 10 µM with UCP3 was above 10.
`Cc1c(C(=O)O)cnn1-c1nc(-c2cccc(Cl)c2)cs1` [Compound 4, 1-[4-(3-Chlorophenyl)thiazol-2-yl]-5-methylpyrazole-4-carboxylic acid]: the melting point was 258 to 258.3 °C. The fold induction at 10 µM in the data set with UCP3 was above 10.
`O=C(O)c1cnn(-c2nc(-c3cccc(C(F)(F)F)c3)cs2)c1C(F)(F)F` [Compound 5, 1-[4-(3-(Trifluoromethyl)phenyl)thiazol-2-yl]-5-trifluoromethylpyrazole-4-carboxylic acid]: on RXRα, the “RXRα RNA induction at 1 μM” value is on record as “+ (+ denotes 5-fold or less induction)”, the “RXRα RNA induction at 3 μM” value is reported as “+ (+ denotes 5-fold or less induction)” and the “RXRα RNA induction at 10 μM” value was “+ (+ denotes 5-fold or less induction)”. Further, the fold induction at 10 µM in the data set on UCP3 was above 10.
The compound `O=C(O)c1cnn(-c2nc(-c3cccc(C(F)(F)F)c3)cs2)c1` [Compound 6, 1-[4-(3-(Trifluoromethyl)phenyl)thiazol-2-yl]pyrazole-4-carboxylic acid] gave a melting point of 229.1 to 229.6 °C. For the same compound, in the data set with UCP3, the fold induction at 10 µM is above 10.
In turn, `Cc1c(C(=O)O)cnn1-c1nc(-c2ccccc2C(F)(F)F)cs1` [Compound 7, 1-[4-(2-(Trifluoromethyl)phenyl)thiazol-2-yl]-5-methylpyrazole-4-carboxylic acid] came in with a melting point of 215.5 to 216.5 °C. Further, on RXRα, the “RXRα RNA induction at 1 μM” value is given as “+ (+ denotes 5-fold or less induction)”, the “RXRα RNA induction at 3 μM” value is listed as “+ (+ denotes 5-fold or less induction)” and the “RXRα RNA induction at 10 μM” value was “+ (+ denotes 5-fold or less induction)”. Also, the fold induction at 10 µM with UCP3 was above 10.
`CCOC(=O)c1cnn(-c2nc(-c3cccc([N+](=O)[O-])c3)cs2)c1C` [Compound 8, Ethyl 1-[4-(3-nitrophenyl)thiazol-2-yl]-5-methylpyrazole-4-carboxylate]: at RXRα, the “RXRα RNA induction at 1 μM” value is recorded as “+ (+ denotes 5-fold or less induction)”, the “RXRα RNA induction at 3 μM” value is reported as “+ (+ denotes 5-fold or less induction)” and the “RXRα RNA induction at 10 μM” value is reported as “+ (+ denotes 5-fold or less induction)”. The “UCP3 RNA induction, Induction at 10 μM” value in the data set with UCP3 is listed as “—”.
`Cc1c(C(=O)O)cnn1-c1nc(-c2ccc3ccccc3c2)cs1` [Compound 9, 1-[4-(2-Naphthyl)thiazol-2-yl]-5-methylpyrazole-4-carboxylic acid] displayed a melting point of 273.1 to 274.3 °C. Also, at RXRα, the “RXRα RNA induction at 1 μM” value is recorded as “+ (+ denotes 5-fold or less induction)”, the “RXRα RNA induction at 3 μM” value is reported as “+ (+ denotes 5-fold or less induction)” and the “RXRα RNA induction at 10 μM” value is on record as “+ (+ denotes 5-fold or less induction)”. In addition, in the data set with UCP3, the “UCP3 RNA induction, Induction at 10 μM” value is listed as “—”.
Regarding `Cc1c(C(=O)O)cnn1-c1nc(-c2cc(C(F)(F)F)cc(C(F)(F)F)c2)cs1` [Compound 10, 1-[4-(3,5-Bis(trifluoromethyl)phenyl)thiazol-2-yl]-5-methylpyrazole-4-carboxylic acid], the melting point is 260.9 to 261.4 °C. In addition, on RXRα, the “RXRα RNA induction at 1 μM” value is reported as “+ (+ denotes 5-fold or less induction)”, the “RXRα RNA induction at 3 μM” value is reported as “++ (++ denotes greater than 5-fold induction)” and the “RXRα RNA induction at 10 μM” value is “+ (+ denotes 5-fold or less induction)”. Besides, in the data set with UCP3, the fold induction at 10 µM is at most 10.
`CCOC(=O)c1cnn(-c2nc(-c3cccc(C(F)(F)F)c3)cs2)c1C` [Compound 11, Ethyl 1-[4-(3-(trifluoromethyl)phenyl)thiazol-2-yl]-5-methylpyrazole-4-carboxylate] displayed a melting point of 138 to 138.5 °C. Further, in the data set on UCP3, the fold induction at 10 µM was at most 10.
Regarding `O=C(O)c1cnn(-c2nc(-c3cccc([N+](=O)[O-])c3)cs2)c1C(F)(F)F` [Compound 12, 1-[4-(3-Nitrophenyl)thiazol-2-yl]-5-trifluoromethylpyrazole-4-carboxylic acid], the “UCP3 RNA induction, Induction at 10 μM” value in the data set with UCP3 is reported as “—”.
As for `COc1cccc(-c2csc(-n3ncc(C(=O)O)c3C)n2)c1` [Compound 14], on RXRα, the “RXRα RNA induction at 1 μM” value is on record as “++ (++ denotes greater than 5-fold induction)”, the “RXRα RNA induction at 3 μM” value is “++ (++ denotes greater than 5-fold induction)” and the “RXRα RNA induction at 10 μM” value is on record as “++ (++ denotes greater than 5-fold induction)”.
For `CCc1c(C(=O)O)cnn1-c1nc(-c2cccc(C(F)(F)F)c2)cs1` [Compound 15], on RXRα, the “RXRα RNA induction at 1 μM” value is reported as “+ (+ denotes 5-fold or less induction)”, the “RXRα RNA induction at 3 μM” value is on record as “++ (++ denotes greater than 5-fold induction)” and the “RXRα RNA induction at 10 μM” value was “+ (+ denotes 5-fold or less induction)”.
Take `O=C(O)c1cnn(-c2nc(-c3cccc(C(F)(F)F)c3)cs2)c1C(=O)O` [Compound 16]: on RXRα, the “RXRα RNA induction at 1 μM” value is given as “+ (+ denotes 5-fold or less induction)”, the “RXRα RNA induction at 3 μM” value is reported as “+ (+ denotes 5-fold or less induction)” and the “RXRα RNA induction at 10 μM” value is on record as “+ (+ denotes 5-fold or less induction)”.
As for `Cc1c(C(=O)O)cnn1-c1nc(-c2ccccc2)cs1` [Compound 17], on RXRα, the “RXRα RNA induction at 1 μM” value was “+ (+ denotes 5-fold or less induction)”, the “RXRα RNA induction at 3 μM” value is reported as “+ (+ denotes 5-fold or less induction)” and the “RXRα RNA induction at 10 μM” value is recorded as “+ (+ denotes 5-fold or less induction)”.
For `Cc1c(C(=O)O)cnn1-c1nc(-c2ccc(Cl)cc2)cs1` [Compound 18], at RXRα, the “RXRα RNA induction at 1 μM” value is reported as “+ (+ denotes 5-fold or less induction)”, the “RXRα RNA induction at 3 μM” value is “++ (++ denotes greater than 5-fold induction)” and the “RXRα RNA induction at 10 μM” value is reported as “+ (+ denotes 5-fold or less induction)”.
As for `Cc1c(C(=O)O)cnn1-c1nc(-c2ccc(-c3ccccc3)cc2)cs1` [Compound 19], on RXRα, the “RXRα RNA induction at 1 μM” value was “+ (+ denotes 5-fold or less induction)”, the “RXRα RNA induction at 3 μM” value was “+ (+ denotes 5-fold or less induction)” and the “RXRα RNA induction at 10 μM” value was “+ (+ denotes 5-fold or less induction)”.
Turning to `Cc1c(C(=O)NCCC(=O)O)cnn1-c1nc(-c2cccc(C(F)(F)F)c2)cs1` [Compound 20], the fold induction at 10 µM in the data set with UCP3 was at most 10.
